From paper PMC6001238, “Iterative Chemical Engineering of Vancomycin Leads to Novel Vancomycin Analogs With a High in Vitro Therapeutic Index” (Frontiers in Microbiology, 2018)
≈ marks a conversion by molar mass, not a printed value.

Key:
MRSA KS2 = assay: MIC, broth microdilution, MRSA KS2; type: cell-based, Staphylococcus aureus; conditions: for MIC-fold improvement vs. vancomycin: MRSA KS2, ratio of MIC of vancomycin and MIC of analogue; for MIC: Staphylococcus aureus MRSA KS2, read-out: MIC
How it was run: (§1)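 CLSI broth microdilution; water and uninoculated-broth controls; one arm supplemented with vancomycin, final 10 μM, given with analogue or control antibiotic.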

MRSA KS1 = assay: MIC, broth microdilution, MRSA KS1; type: cell-based, Staphylococcus aureus; conditions: for MIC-fold improvement vs. vancomycin: MRSA KS1, ratio of MIC of vancomycin and MIC of analogue; for MIC: Staphylococcus aureus MRSA KS1, read-out: MIC
How it was run: as §1

S. aureus VISA/HIP5827 = assay: MIC, broth microdilution, vancomycin-intermediate S. aureus VISA HIP5827; type: cell-based, Staphylococcus aureus; conditions: for MIC: Staphylococcus aureus VISA/HIP5827, read-out: MIC; for MIC-fold improvement vs. vancomycin: VISA/HIP5827, ratio of MIC of vancomycin and MIC of analogue
How it was run: as §1

MRSA KS6 = assay: MIC, broth microdilution, MRSA KS6; type: cell-based, Staphylococcus aureus; conditions: for MIC-fold improvement vs. vancomycin: MRSA KS6, ratio of MIC of vancomycin and MIC of analogue; for MIC: Staphylococcus aureus MRSA KS6, read-out: MIC
How it was run: as §1

MRSA KS89 = assay: MIC, broth microdilution, MRSA KS89; type: cell-based, Staphylococcus aureus; conditions: for MIC-fold improvement vs. vancomycin: MRSA KS8, ratio of MIC of vancomycin and MIC of analogue; for MIC: Staphylococcus aureus MRSA KS8, read-out: MIC
How it was run: as §1

[1] = test system: S. aureus VSSA (ATCC 6538); assay: MIC, broth microdilution, vancomycin-sensitive S. aureus (VSSA/MSSA, ATCC 6538); type: cell-based, Staphylococcus aureus; conditions: for MIC: Staphylococcus aureus VSSA, read-out: MIC; for MIC-fold improvement vs. vancomycin: VSSA, ratio of MIC of vancomycin and MIC of analogue
How it was run: as §1

[2] = test system: human cervix carcinoma (HeLa) cells; assay: Cytostatic activity, HeLa cell proliferation; type: cell-based; conditions: mean ± SD of three experiments; highest concentration tested 250 µM; 4 days; read-out: Toxicity (IC50) HeLa
How it was run: (§2)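 Test compounds, serially diluted, received an equal volume of cell suspension at 300,000–500,000 cells/mL. After 37°C incubation (2 days for L1210, 3 for CEM, 4 for HeLa), cells were enumerated by Coulter counting and 50%-inhibitory concentrations calculated per cell type.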

E. faecalis VRE 53 = assay: MIC, broth microdilution, vancomycin-resistant E. faecalis VRE 53 (VanA); type: cell-based, Enterococcus faecalis; conditions: for MIC: Enterococcus faecalis VRE 53 (vancomycin-resistant), read-out: MIC; for MIC-fold improvement vs. vancomycin: VRE 53, ratio of MIC of vancomycin and MIC of analogue
How it was run: as §1

[3] = test system: L1210, CEM and HeLa cell lines; assay: Cytostatic activity, average or summary over L1210, CEM and HeLa; type: cell-based; conditions: average of L1210, CEM and HeLa; read-out: Toxicity (IC50) Average
How it was run: as §2

E. faecalis VRE 6 = assay: MIC, broth microdilution, vancomycin-resistant E. faecalis VRE 6 (VanA); type: cell-based, Enterococcus faecalis; conditions: for MIC: Enterococcus faecalis VRE 6 (vancomycin-resistant), read-out: MIC; for MIC-fold improvement vs. vancomycin: VRE 6, ratio of MIC of vancomycin and MIC of analogue
How it was run: as §1

S. aureus VRSA = assay: MIC, broth microdilution, vancomycin-resistant S. aureus (VRSA); type: cell-based, Staphylococcus aureus; conditions: for MIC: Staphylococcus aureus VRSA, read-out: MIC; for MIC-fold improvement vs. vancomycin: VRSA, ratio of MIC of vancomycin and MIC of analogue
How it was run: as §1

[4] = test system: human T-lymphocyte (CEM) cells; assay: Cytostatic activity, CEM cell proliferation; type: cell-based; conditions: mean ± SD of three experiments; highest concentration tested 250 µM; 3 days; read-out: Toxicity (IC50) CEM
How it was run: as §2

[5] = test system: Murine leukemia (L1210) cells; assay: Cytostatic activity, L1210 cell proliferation; type: cell-based; conditions: mean ± SD of three experiments; highest concentration tested 250 µM; 2 days; read-out: Toxicity (IC50) L1210
How it was run: as §2

E. faecalis VRE 37 = assay: MIC, broth microdilution, vancomycin-resistant E. faecalis VRE 37 (VanA); type: cell-based, Enterococcus faecalis; conditions: for MIC: Enterococcus faecalis VRE 37 (vancomycin-resistant), read-out: MIC; for MIC-fold improvement vs. vancomycin: VRE 37, ratio of MIC of vancomycin and MIC of analogue
How it was run: as §1

E. faecalis VRE 29 = assay: MIC, broth microdilution, vancomycin-resistant E. faecalis VRE 29 (VanA); type: cell-based, Enterococcus faecalis; conditions: for MIC: Enterococcus faecalis VRE 29 (vancomycin-resistant), read-out: MIC; for MIC-fold improvement vs. vancomycin: VRE 29, ratio of MIC of vancomycin and MIC of analogue
How it was run: as §1

E. faecalis VSE 1 = assay: MIC, broth microdilution, vancomycin-sensitive E. faecalis (VSE 1); type: cell-based, Enterococcus faecalis; conditions: for MIC: Enterococcus faecalis VSE 1 (vancomycin-sensitive), read-out: MIC; for MIC-fold improvement vs. vancomycin: VSE 1, ratio of MIC of vancomycin and MIC of analogue
How it was run: as §1

For `CN[C@H](CC(C)C)C(=O)N[C@H]1C(=O)N[C@@H](CC(N)=O)C(=O)N[C@H]2C(=O)N[C@H]3C(=O)N[C@H](C(=O)N[C@H](C(=O)NCCNC(=O)/C=C/c4ccc(NS(=O)(=O)c5ccc(C(C)C)cc5)cc4)c4cc(O)cc(O)c4-c4cc3ccc4O)[C@H](O)c3ccc(c(Cl)c3)Oc3cc2cc(c3O[C@@H]2O[C@H](CO)[C@@H](O)[C@H](O)[C@H]2O[C@H]2C[C@](C)(N)[C@H](O)[C@H](C)O2)Oc2ccc(cc2Cl)[C@H]1O` [Vanc-56], the “MIC-fold improvement vs. vancomycin” value (MRSA KS2) was 4, the MIC (MRSA KS2) was 0.20 µM (≈ 0.364 µg/mL) and the “MIC-fold improvement vs. vancomycin” value (MRSA KS1) was 1. For the same compound, the MIC (MRSA KS1) was 0.78 µM (≈ 1.42 µg/mL), the MIC (S. aureus VISA/HIP5827) was 0.78 µM (≈ 1.42 µg/mL) and the “MIC-fold improvement vs. vancomycin” value (S. aureus VISA/HIP5827) was 8. For the same compound, the “MIC-fold improvement vs. vancomycin” value (MRSA KS6) was 4, the MIC (MRSA KS6) was 0.20 µM (≈ 0.364 µg/mL) and the “MIC-fold improvement vs. vancomycin” value (MRSA KS89) was 2. For the same compound, the MIC (MRSA KS89) was 0.39 µM (≈ 0.709 µg/mL), the MIC [1] was 0.39 µM (≈ 0.709 µg/mL) and the “MIC-fold improvement vs. vancomycin” value [1] was 2. The IC50 [2] was 104 ± 17 µM, the MIC (E. faecalis VRE 53) was 6.25 µM (≈ 11.4 µg/mL) and the “MIC-fold improvement vs. vancomycin” value (E. faecalis VRE 53) was 64. For the same compound, the IC50 [3] was 201 µM, the MIC (E. faecalis VRE 6) was 3.13 µM (≈ 5.69 µg/mL) and the “MIC-fold improvement vs. vancomycin” value (E. faecalis VRE 6) was 64. For the same compound, the MIC (S. aureus VRSA) was 0.39 µM (≈ 0.709 µg/mL), the “MIC-fold improvement vs. vancomycin” value (S. aureus VRSA) was 256 and the IC50 [4] was at least 250 µM. For the same compound, the IC50 [5] was over 250 µM, the MIC (E. faecalis VRE 37) was 6.25 µM (≈ 11.4 µg/mL) and the “MIC-fold improvement vs. vancomycin” value (E. faecalis VRE 37) was 64. For the same compound, the MIC (E. faecalis VRE 29) was 6.25 µM (≈ 11.4 µg/mL), the “MIC-fold improvement vs. vancomycin” value (E. faecalis VRE 29) was 64 and the MIC (E. faecalis VSE 1) was 0.39 µM (≈ 0.709 µg/mL). For the same compound, the “MIC-fold improvement vs. vancomycin” value (E. faecalis VSE 1) was 4.

In the case of `CNC(CC(C)C)C(=O)NC1C(=O)NC(CC(N)=O)C(=O)NC2C(=O)NC3C(=O)NC(C(=O)NC(C(=O)NCC(=O)Nc4ccc(-c5ccc(OC)cc5)cc4)c4cc(O)cc(O)c4-c4cc3ccc4O)C(O)c3ccc(c(Cl)c3)Oc3cc2cc(c3OC2OC(CO)C(O)C(O)C2OC2CC(C)(N)C(O)C(C)O2)Oc2ccc(cc2Cl)C1O` (centres unmarked) [Vanc-57], the “MIC-fold improvement vs. vancomycin” value (MRSA KS2) is reported as 4, the MIC (MRSA KS2) is reported as 0.20 µM (≈ 0.338 µg/mL) and the “MIC-fold improvement vs. vancomycin” value (MRSA KS1) is reported as 8. The MIC (MRSA KS1) was 0.10 µM (≈ 0.169 µg/mL), the MIC (S. aureus VISA/HIP5827) was 0.39 µM (≈ 0.658 µg/mL) and the “MIC-fold improvement vs. vancomycin” value (S. aureus VISA/HIP5827) was 16. The “MIC-fold improvement vs. vancomycin” value (MRSA KS6) was 0.5, the MIC (MRSA KS6) was 1.56 µM (≈ 2.63 µg/mL) and the “MIC-fold improvement vs. vancomycin” value (MRSA KS89) was 2. The MIC (MRSA KS89) was 0.39 µM (≈ 0.658 µg/mL), the MIC [1] was 0.20 µM (≈ 0.338 µg/mL) and the “MIC-fold improvement vs. vancomycin” value [1] was 4. The IC50 [2] was 41 ± 12 µM, the MIC (E. faecalis VRE 53) was 12.5 µM (≈ 21.1 µg/mL) and the “MIC-fold improvement vs. vancomycin” value (E. faecalis VRE 53) was 32. The IC50 [3] was 17 µM, the MIC (E. faecalis VRE 6) was 1.56 µM (≈ 2.63 µg/mL) and the “MIC-fold improvement vs. vancomycin” value (E. faecalis VRE 6) was 128. The MIC (S. aureus VRSA) was 1.56 µM (≈ 2.63 µg/mL), the “MIC-fold improvement vs. vancomycin” value (S. aureus VRSA) was 64 and the IC50 [4] was 3.7 ± 0.2 µM. For the same compound, the IC50 [5] was 6.3 ± 0.2 µM, the MIC (E. faecalis VRE 37) was 1.56 µM (≈ 2.63 µg/mL) and the “MIC-fold improvement vs. vancomycin” value (E. faecalis VRE 37) was 256. The MIC (E. faecalis VRE 29) was 3.13 µM (≈ 5.28 µg/mL), the “MIC-fold improvement vs. vancomycin” value (E. faecalis VRE 29) was 128 and the MIC (E. faecalis VSE 1) was at most 0.05 µM. For the same compound, the “MIC-fold improvement vs. vancomycin” value (E. faecalis VSE 1) was at least 32.

`CNC(CC(C)C)C(=O)NC1C(=O)NC(CC(N)=O)C(=O)NC2C(=O)NC3C(=O)NC(C(=O)NC(C(=O)NCC(=O)Nc4ccc(C=Cc5ccc(N)cc5)cc4)c4cc(O)cc(O)c4-c4cc3ccc4O)C(O)c3ccc(c(Cl)c3)Oc3cc2cc(c3OC2OC(CO)C(O)C(O)C2OC2CC(C)(N)C(O)C(C)O2)Oc2ccc(cc2Cl)C1O` (centres unmarked) [Vanc-58] was tested, and the “MIC-fold improvement vs. vancomycin” value (MRSA KS2) was 1, the MIC (MRSA KS2) was 0.78 µM (≈ 1.32 µg/mL) and the “MIC-fold improvement vs. vancomycin” value (MRSA KS1) was 0.5. For the same compound, the MIC (MRSA KS1) was 1.56 µM (≈ 2.65 µg/mL), the MIC (S. aureus VISA/HIP5827) was 1.56 µM (≈ 2.65 µg/mL) and the “MIC-fold improvement vs. vancomycin” value (S. aureus VISA/HIP5827) was 4. The “MIC-fold improvement vs. vancomycin” value (MRSA KS6) was 1, the MIC (MRSA KS6) was 0.78 µM (≈ 1.32 µg/mL) and the “MIC-fold improvement vs. vancomycin” value (MRSA KS89) was 1. The MIC (MRSA KS89) was 0.78 µM (≈ 1.32 µg/mL), the MIC [1] was 0.78 µM (≈ 1.32 µg/mL) and the “MIC-fold improvement vs. vancomycin” value [1] was 1. The IC50 [2] was 125 ± 57 µM, the MIC (E. faecalis VRE 53) was 25 µM (≈ 42.5 µg/mL) and the “MIC-fold improvement vs. vancomycin” value (E. faecalis VRE 53) was 16. For the same compound, the IC50 [3] was 191 µM, the MIC (E. faecalis VRE 6) was 6.25 µM (≈ 10.6 µg/mL) and the “MIC-fold improvement vs. vancomycin” value (E. faecalis VRE 6) was 32. For the same compound, the MIC (S. aureus VRSA) was 0.78 µM (≈ 1.32 µg/mL), the “MIC-fold improvement vs. vancomycin” value (S. aureus VRSA) was 128 and the IC50 [4] was 197 ± 75 µM. It also gave an IC50 [5] of over 250 µM, an MIC (E. faecalis VRE 37) of 12.5 µM (≈ 21.2 µg/mL) and an MIC (E. faecalis VRE 29) of 12.5 µM (≈ 21.2 µg/mL). The “MIC-fold improvement vs. vancomycin” value (E. faecalis VRE 29) was 32, the MIC (E. faecalis VSE 1) was 0.78 µM (≈ 1.32 µg/mL) and the “MIC-fold improvement vs. vancomycin” value (E. faecalis VSE 1) was 2.
